Activity calls are given as the source filed them.
Assays:
[1] = biological target: Potassium voltage-gated channel subfamily KQT member 2 (Rattus norvegicus, UniProt O88943); experiment: KCNQ2 potassium channel inhibitors, dose response, cell-based, automated electrophysiology, set II, rat KCNQ2 (AID 588637); type: functional
[2] = biological target: Benomyl/methotrexate resistance protein (Candida albicans, UniProt P28873); experiment: CaMdr1 efflux pump inhibitor potency, dose response, singleplex, Cherry Pick1 hits (AID 588608); type: functional
Chain of Benomyl/methotrexate resistance protein (P28873 whole entry): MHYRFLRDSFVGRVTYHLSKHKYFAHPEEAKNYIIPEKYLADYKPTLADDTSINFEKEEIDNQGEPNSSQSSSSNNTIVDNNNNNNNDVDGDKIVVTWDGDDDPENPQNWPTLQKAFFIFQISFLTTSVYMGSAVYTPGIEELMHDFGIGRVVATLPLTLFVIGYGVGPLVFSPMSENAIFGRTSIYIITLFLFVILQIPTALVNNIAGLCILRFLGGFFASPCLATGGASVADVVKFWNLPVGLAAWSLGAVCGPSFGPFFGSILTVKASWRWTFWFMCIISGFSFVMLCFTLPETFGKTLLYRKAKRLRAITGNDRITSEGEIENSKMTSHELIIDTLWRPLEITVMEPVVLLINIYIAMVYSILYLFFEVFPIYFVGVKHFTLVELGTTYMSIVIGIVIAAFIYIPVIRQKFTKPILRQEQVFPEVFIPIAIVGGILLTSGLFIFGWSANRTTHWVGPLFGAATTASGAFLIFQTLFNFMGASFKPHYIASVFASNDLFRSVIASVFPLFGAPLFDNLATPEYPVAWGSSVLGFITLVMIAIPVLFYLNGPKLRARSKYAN

Aurora kinase B = Aurora kinase B (Homo sapiens, UniProt Q96GD4); type: functional
Chain of Aurora kinase B (Q96GD4 whole entry): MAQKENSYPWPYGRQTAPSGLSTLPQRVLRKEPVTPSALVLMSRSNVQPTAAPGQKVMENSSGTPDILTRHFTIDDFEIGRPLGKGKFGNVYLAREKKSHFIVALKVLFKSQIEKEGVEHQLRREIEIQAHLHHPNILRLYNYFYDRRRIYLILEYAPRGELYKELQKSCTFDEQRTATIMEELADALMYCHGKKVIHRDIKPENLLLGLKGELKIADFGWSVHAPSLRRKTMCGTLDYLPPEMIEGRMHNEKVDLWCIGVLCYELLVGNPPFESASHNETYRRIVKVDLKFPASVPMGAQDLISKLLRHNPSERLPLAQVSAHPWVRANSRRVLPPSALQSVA

[3] = inhibitors of intracellular T. cruzi replication, confirmation, NIH3T3 host cells, beta-gal luminescence (AID 2044); type: functional, cell-based;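 note: intracellular parasites grown in NIH/3T3 mouse fibroblasts as host cells; luminescent beta-galactosidase reporter signal from transgenic T. cruzi replicating inside host cells; inhibitors lower the luminescence signal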
[4] = NIH-3T3 fibroblast cytotoxicity, dose response, cytotoxicity control, cell-based, fluorescence, Alamar Blue, secondary assay (AID 2327); type: functional;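 note: NIH-3T3 mouse fibroblasts cultured with fluconazole at 8 µg/mL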
[5] = inhibitors of SNCA 5'UTR-driven reporter translation, confirmation, H4 neuroglioma cells, luminescence (AID 1988); type: functional, cell-based
[6] = biological target: ATP-dependent molecular chaperone HSP82 (Candida albicans (strain WO-1) (Yeast), UniProt C4YTQ8); experiment: loss of DOC-induced GRE-beta-galactosidase reporter signal, dose response, Hsp90 inhibitor project, S. cerevisiae, luminescence (AID 2400); type: functional, cell-based;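 note: beta-galactosidase luminescence from glucocorticoid response element reporter as proxy for Hsp90 function; inhibitor potency where signal loss means Hsp90 inhibition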
[7] = biological target: Serine/threonine-protein phosphatase (Candida dubliniensis (strain CD36 / CBS 7987 / NCPF 3949 / NRRLY-17841) (Yeast), UniProt B9W6M3); experiment: calcineurin pathway inhibitors in yeast reporter, dose response, S. cerevisiae, CDRE-lacZ, luminescence, secondary (AID 2388); type: functional, cell-based;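 note: yeast reporter cells carrying a calcineurin-responsive lacZ construct stimulated with calcium chloride; luminescent beta-galactosidase reporter signal in whole cells rather than isolated phosphatase activity; potency for inhibition where a drop in reporter signal means calcineurin blockade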
Chain of Serine/threonine-protein phosphatase (B9W6M3 whole entry): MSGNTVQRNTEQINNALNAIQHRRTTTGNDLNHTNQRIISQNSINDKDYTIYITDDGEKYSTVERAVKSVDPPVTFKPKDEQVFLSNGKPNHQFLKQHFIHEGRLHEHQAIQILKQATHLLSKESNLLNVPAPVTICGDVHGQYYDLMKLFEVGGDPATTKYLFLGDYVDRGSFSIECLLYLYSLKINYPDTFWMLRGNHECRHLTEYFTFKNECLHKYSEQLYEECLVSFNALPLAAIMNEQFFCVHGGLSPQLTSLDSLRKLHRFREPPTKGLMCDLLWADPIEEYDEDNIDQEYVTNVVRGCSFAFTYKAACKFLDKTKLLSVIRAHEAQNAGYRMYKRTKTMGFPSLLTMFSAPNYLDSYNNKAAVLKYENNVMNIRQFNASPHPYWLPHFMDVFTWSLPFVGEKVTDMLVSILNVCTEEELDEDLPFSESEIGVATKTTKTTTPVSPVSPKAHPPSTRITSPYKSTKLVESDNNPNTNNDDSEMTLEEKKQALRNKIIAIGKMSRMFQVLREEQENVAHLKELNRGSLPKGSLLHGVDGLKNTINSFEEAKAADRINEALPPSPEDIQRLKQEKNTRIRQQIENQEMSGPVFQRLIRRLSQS

INS1 = experiment: beta cell apoptosis inhibitors, cytokine rescue, dose response, luminescence, retest (AID 449756); type: functional, cell-based; details: Rattus norvegicus;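 note: cell death triggered by IL-1 beta plus TNF-alpha plus IFN-gamma mixture; protective hits raise ATP signal compared with cytokine alone wells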
[8] = NIH-3T3 fibroblast cytotoxicity, dose response, cytotoxicity control for antifungal single agent project, cell-based, Alamar Blue, dry powder (AID 602188); type: functional
Streptococcus = experiment: Group A Streptococcus viability loss, dose response, counter-screen for streptokinase expression inhibitor project, luminescence, BacTiterGlo (AID 1915); type: functional, organism-based;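 note: potency for reduction of bacterial viability or growth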
[9] = inhibitors of firefly luciferase expression or activity, dose response, H4 neuroglioma cells, luminescence (AID 1990); type: functional, cell-based
[10] = C. albicans growth with fluconazole, confirmation, fluorescence, retest (AID 2467); type: functional, cell-based
[11] = cytotoxicity toward NIH3T3 fibroblasts, dose response, counter-screen, cell-based, ATP luminescence, mouse fibroblasts (AID 2010); type: functional;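 note: cells exposed to compound for about 90 hours before reading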
[12] = Luminescence Cell-Based Dose Response HTS to Identify Inhibitors of 5'UTR Stem-Loop Driven Prion Protein mRNA Translation in H4 Neuroglioblastoma Cells. [Related pubchem assays: 1827 (Project Summary), 1813 (Primary HTS)]; type: functional
[13] = tested on: Streptococcus sp. 'group A'; experiment: growth inhibition of control SK(-) GAS strain, dose response, counter-screen for streptokinase expression inhibitor project, luminescence, kanamycin, BacTiterGlo, confirmation (AID 1900); type: functional, organism-based
[14] = biological target: Melanin-concentrating hormone receptor 1 (Homo sapiens, UniProt Q99705); experiment: Late-stage fluorescence-based counterscreen for antagonists of the G-protein coupled receptor 7 (GPR7): cell-based dose response assay to identify antagonists of the melanin-concentrating hormone receptor 1 (MCHR1) Set 6.; type: functional
Chain of Melanin-concentrating hormone receptor 1 (Q99705 whole entry): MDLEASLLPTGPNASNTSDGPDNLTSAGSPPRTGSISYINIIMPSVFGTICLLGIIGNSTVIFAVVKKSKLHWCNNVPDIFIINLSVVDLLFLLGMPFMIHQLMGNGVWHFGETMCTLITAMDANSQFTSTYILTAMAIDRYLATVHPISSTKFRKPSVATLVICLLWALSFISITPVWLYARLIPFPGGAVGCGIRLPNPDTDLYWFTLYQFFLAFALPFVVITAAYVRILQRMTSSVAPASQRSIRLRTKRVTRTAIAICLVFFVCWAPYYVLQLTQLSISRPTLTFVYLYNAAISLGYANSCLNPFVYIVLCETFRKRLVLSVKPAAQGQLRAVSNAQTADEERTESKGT

[15] = biological target: T1, Neuropeptides B/W receptor type 1 (Homo sapiens, UniProt P48145); experiment: GPR7 antagonist potency, late-stage follow-up, cell-based, fluorescence, dose response, set 6 (AID 588583); type: functional
T1 sequence (P48145 whole entry): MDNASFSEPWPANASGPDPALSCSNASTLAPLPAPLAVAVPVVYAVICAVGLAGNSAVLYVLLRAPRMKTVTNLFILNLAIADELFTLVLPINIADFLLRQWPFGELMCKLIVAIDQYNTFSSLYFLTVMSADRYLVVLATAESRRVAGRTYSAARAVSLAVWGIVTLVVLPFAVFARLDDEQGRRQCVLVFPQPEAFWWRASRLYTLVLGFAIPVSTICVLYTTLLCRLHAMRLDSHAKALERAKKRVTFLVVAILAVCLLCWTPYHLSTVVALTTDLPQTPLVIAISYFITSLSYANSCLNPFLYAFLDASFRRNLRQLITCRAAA

[16] = biological target: T2, Orexin/Hypocretin receptor type 1 (Homo sapiens, UniProt O43613); experiment: Homogeneous Time Resolved Fluorescence (HTRF)-based cell-based high throughput dose response assay for antagonists of the orexin 1 receptor (OX1R; HCRTR1). [Related pubchem assays (depositor defined):AID434989, AID435008, AID463079, AID485270, AID492963, AID492964, AID492965, AID493232, AID504717, AID504718]; type: functional
T2 sequence (O43613 whole entry): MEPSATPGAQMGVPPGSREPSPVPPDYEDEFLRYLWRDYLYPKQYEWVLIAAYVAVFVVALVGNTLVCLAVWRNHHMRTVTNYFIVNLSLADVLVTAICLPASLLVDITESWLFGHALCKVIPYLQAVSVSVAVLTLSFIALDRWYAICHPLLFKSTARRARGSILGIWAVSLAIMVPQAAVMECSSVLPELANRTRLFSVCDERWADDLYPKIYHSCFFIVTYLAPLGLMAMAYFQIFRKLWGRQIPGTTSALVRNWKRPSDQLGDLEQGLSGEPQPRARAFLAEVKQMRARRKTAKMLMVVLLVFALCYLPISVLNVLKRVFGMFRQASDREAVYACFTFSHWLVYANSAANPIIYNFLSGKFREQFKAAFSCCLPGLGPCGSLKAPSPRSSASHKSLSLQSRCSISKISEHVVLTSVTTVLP

CHO-K1 = experiment: Counterscreen for antagonists of the orexin 1 receptor (OX1R; HCRTR1): Homogeneous time resolved fluorescence (HTRF)-based cell-based dose response assay to identify antagonists of the parental CHO-K1 cell line. [Related pubchem assays (depositor defined):AID434989, AID435008, AID463079, AID485270, AID492963, AID492964, AID492965, AID493232, AID504699, AID504701]; type: functional; details: Cricetulus griseus;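 note: potency for inhibition of ATP-stimulated IP1 production as antagonists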
[17] = biological target: T2, Orexin/Hypocretin receptor type 1; experiment: Fluorescence-based cell-based high throughput dose response assay for antagonists of the orexin 1 receptor (OX1R; HCRTR1). [Related pubchem assays (depositor defined):AID434989, AID435008, AID463079, AID485270, AID492963, AID492964, AID492965, AID493232, AID504717, AID504718]; type: functional
Orexin receptor type 2 [18] = biological target: T3, Orexin receptor type 2 (Homo sapiens, UniProt O43614); experiment: Counterscreen assay for antagonists of the orexin 1 receptor (OX1R; HCRTR1): Homogeneous Time Resolved Fluorescence (HTRF)-based cell-based dose response assay for antagonists of the orexin 2 receptor (OX2R; HCRTR2), run by assay provider.; type: functional
T3 sequence (O43614 whole entry): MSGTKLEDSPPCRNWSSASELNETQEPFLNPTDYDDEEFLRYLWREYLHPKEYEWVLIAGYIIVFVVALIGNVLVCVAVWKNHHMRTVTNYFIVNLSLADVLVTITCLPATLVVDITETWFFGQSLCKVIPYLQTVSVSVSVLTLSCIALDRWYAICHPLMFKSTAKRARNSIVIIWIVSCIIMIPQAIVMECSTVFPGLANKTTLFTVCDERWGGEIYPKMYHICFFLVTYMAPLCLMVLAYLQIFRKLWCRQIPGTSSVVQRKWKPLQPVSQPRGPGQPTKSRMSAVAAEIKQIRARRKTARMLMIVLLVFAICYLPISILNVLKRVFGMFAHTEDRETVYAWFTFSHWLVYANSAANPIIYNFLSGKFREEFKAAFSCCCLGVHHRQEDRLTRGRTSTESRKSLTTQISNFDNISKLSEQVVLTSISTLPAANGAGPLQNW

Orexin receptor type 2 [19] = biological target: T3, Orexin receptor type 2; experiment: Counterscreen assay for antagonists of the orexin 1 receptor (OX1R; HCRTR1): Fluorescence-based cell-based dose response assay for antagonists of the orexin 2 receptor (OX2R; HCRTR2), run by assay provider.; type: functional
[20] = Counterscreen for antagonists of the orexin 1 receptor (OX1R; HCRTR1): Fluorescence-based cell-based high throughput dose response assay to identify antagonists of the parental CHO cell line. [Related pubchem assays (depositor defined):AID434989, AID435008, AID463079, AID485270, AID492963, AID492964, AID492965, AID493232, AID504699, AID504701]; type: functional
Melanocortin receptor 4 = Melanocortin receptor 4 (Homo sapiens, UniProt P32245); type: functional, cell-based;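 note: Cell-based assay with luminescence read-out, confirmatory dose-response testing for agonist activity of biased ligands at MC4R; human U2OS cells with tagged receptor and beta-arrestin; potency of agonists that increase receptor coupling to beta-arrestin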
Chain of Melanocortin receptor 4 (P32245 whole entry): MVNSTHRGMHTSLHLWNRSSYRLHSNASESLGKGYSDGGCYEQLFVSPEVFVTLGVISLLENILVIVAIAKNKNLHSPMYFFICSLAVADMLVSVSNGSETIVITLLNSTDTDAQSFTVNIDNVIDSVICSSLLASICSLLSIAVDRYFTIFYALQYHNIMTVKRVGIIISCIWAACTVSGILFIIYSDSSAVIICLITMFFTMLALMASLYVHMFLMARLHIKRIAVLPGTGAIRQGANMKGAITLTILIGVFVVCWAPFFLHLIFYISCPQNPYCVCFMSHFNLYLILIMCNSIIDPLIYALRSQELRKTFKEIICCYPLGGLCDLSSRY

[21] = biological target: Ras and Rab interactor 1/Tyrosine-protein kinase ABL1 (Homo sapiens, UniProt P00519+Q13671); type: functional;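 note: biochemical TR-FRET dose-response test measuring inhibition of binding between Rin1 and Abl proteins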
Chain of Ras and Rab interactor 1/Tyrosine-protein kinase ABL1 (P00519 whole entry): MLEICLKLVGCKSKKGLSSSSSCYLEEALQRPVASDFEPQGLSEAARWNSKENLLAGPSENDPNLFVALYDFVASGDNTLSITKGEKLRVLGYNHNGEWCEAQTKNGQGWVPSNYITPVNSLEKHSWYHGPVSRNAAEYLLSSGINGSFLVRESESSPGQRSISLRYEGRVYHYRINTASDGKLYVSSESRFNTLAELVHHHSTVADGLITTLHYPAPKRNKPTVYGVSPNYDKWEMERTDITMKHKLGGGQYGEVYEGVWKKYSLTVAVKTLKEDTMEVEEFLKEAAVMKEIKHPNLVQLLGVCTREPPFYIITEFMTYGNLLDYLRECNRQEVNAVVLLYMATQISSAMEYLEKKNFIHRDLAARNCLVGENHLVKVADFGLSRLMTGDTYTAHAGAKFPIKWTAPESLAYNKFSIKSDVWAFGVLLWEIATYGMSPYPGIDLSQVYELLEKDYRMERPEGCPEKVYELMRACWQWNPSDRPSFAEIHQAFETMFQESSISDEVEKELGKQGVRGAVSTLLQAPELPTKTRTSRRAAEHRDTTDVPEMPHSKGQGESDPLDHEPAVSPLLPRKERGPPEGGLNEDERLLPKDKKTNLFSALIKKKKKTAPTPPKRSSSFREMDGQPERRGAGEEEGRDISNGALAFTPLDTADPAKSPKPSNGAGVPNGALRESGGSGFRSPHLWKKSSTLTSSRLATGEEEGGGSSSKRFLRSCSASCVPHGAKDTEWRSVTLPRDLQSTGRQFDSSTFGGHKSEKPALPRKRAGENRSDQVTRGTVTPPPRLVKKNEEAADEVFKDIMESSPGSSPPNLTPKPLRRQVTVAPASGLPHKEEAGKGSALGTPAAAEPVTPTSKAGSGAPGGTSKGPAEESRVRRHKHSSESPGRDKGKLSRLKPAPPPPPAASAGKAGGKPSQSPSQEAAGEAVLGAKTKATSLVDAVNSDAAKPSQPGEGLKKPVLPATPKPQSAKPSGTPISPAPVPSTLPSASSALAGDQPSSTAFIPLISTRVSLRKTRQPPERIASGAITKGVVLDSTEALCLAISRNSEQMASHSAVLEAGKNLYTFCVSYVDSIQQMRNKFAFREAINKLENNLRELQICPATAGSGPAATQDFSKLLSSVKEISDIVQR
Chain of Ras and Rab interactor 1/Tyrosine-protein kinase ABL1 (Q13671 whole entry): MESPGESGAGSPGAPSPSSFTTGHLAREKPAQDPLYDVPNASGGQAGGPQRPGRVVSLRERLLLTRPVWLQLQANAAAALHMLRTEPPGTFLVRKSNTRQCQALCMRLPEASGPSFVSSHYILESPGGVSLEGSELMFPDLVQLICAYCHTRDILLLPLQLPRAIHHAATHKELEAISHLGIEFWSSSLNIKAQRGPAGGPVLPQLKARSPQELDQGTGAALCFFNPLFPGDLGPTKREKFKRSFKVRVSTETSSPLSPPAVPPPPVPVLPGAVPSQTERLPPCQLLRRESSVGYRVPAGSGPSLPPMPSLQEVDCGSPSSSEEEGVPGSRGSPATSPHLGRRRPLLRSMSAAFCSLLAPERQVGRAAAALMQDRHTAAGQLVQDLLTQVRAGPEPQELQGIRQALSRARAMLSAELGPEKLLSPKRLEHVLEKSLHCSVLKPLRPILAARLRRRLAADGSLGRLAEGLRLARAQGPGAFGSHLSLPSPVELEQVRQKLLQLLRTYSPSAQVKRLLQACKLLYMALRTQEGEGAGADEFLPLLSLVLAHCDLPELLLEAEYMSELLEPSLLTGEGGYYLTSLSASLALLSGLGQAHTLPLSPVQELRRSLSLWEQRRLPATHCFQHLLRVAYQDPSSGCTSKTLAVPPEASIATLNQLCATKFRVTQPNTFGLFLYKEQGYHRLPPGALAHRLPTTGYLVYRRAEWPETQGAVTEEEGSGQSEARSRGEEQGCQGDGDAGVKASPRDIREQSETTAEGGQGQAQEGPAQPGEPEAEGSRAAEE

Insulin-degrading enzyme [22] = biological target: T4, Insulin-degrading enzyme (Homo sapiens, UniProt P14735); experiment: activators of recombinant IDE enzyme, dose response, counter-screen for IDE activator project, biochemical, fluorescence polarization (AID 588681)
T4 sequence (P14735 whole entry): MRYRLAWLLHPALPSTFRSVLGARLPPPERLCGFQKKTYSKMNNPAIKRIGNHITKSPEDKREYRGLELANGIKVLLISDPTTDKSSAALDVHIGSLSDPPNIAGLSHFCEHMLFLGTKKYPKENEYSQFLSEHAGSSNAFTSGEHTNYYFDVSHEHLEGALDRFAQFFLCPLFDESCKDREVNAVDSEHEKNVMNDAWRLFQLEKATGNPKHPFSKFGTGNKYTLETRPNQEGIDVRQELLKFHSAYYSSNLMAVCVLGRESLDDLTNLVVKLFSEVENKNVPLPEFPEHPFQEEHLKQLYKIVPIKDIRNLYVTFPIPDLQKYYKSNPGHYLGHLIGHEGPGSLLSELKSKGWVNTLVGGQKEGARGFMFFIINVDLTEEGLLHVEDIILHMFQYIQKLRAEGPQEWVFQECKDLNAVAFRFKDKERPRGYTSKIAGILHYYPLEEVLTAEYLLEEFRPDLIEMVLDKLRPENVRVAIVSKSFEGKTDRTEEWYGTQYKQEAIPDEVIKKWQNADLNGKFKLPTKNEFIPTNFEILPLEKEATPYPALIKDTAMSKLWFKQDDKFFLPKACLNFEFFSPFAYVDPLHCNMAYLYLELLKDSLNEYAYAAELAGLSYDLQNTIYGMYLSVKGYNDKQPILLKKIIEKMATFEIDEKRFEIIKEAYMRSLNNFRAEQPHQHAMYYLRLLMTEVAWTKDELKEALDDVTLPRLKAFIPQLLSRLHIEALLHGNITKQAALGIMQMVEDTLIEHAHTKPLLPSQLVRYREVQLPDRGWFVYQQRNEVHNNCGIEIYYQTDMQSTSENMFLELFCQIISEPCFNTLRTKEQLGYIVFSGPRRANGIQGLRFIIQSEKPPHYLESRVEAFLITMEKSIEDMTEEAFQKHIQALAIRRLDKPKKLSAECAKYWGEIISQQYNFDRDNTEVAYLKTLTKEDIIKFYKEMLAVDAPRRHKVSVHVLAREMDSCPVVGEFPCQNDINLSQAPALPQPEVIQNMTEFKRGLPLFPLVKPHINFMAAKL

HEK293 [23] = experiment: optical interference in Abeta FP readout, dose response, artefact control for IDE activator project, biochemical, fluorescence polarization (AID 588442); type: functional, cell-based; details: Homo sapiens
Insulin-degrading enzyme [24] = biological target: T4, Insulin-degrading enzyme; experiment: activators of endogenous IDE in HEK cells, dose response, cell-based, fluorescence polarization (AID 588439); type: functional
HEK293 [25] = experiment: HEK cell cytotoxicity by LDH release, dose response, cytotoxicity control for IDE activator project, fluorescence, HEK cells (AID 588440); type: functional, cell-based; details: Homo sapiens;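 note: cytotoxicity by LDH release measuring loss of membrane integrity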

Chain of Potassium voltage-gated channel subfamily KQT member 2 (O88943 whole entry): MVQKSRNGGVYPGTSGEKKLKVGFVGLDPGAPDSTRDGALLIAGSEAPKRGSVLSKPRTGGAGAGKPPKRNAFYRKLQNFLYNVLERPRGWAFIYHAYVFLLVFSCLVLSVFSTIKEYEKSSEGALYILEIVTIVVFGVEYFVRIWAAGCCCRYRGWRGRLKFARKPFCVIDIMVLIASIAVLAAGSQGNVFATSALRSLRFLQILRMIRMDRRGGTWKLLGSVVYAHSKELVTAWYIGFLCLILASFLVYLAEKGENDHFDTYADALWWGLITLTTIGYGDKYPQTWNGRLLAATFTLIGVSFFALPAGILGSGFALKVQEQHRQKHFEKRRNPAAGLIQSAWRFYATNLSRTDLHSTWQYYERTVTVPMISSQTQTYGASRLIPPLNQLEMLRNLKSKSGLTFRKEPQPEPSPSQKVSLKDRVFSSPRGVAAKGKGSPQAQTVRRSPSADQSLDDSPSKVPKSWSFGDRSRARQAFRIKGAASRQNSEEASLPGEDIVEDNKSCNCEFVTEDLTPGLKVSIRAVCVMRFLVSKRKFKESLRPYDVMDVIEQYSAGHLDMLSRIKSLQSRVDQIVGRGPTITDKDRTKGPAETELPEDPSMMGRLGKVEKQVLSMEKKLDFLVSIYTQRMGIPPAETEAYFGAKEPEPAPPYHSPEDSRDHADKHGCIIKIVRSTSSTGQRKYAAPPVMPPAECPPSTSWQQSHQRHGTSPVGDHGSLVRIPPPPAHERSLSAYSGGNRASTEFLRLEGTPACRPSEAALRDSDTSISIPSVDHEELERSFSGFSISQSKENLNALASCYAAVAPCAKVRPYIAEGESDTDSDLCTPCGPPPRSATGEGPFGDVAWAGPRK

O=C(COc1ccc(Cl)cc1Cl)N(c1ccccn1)C1CCCCC1
IC50 [1]: 69.9 nM (active)

Cc1cccc(C)c1-n1c(SCC(=O)N2CC(=O)Nc3ccccc32)nc2ccccc2c1=O
EC50 [2]: 10 nM (active)

O=C(O)c1ccccc1Nc1ccnc(Nc2ccc(O)cc2)n1
Ki (Aurora kinase B): 2 nM (active)

CN1CCN(C(c2ccc(C(F)(F)F)cc2)c2ccc3cccnc3c2O)CC1 (stereo not drawn)
EC50 [3]: 1.64 µM (active)
EC50 [4]: > 150 µM (inconclusive)
EC50 [5]: 8.06 µM (active)
EC50 [6]: 14 µM (active)
EC50 [7]: > 180 µM (inactive)
AC50 (INS1): 2.43 µM (active)
AC50 [8]: 6.73 µM (active)
EC50 (Streptococcus): 2.91 µM (active)
EC50 [9]: 9.1 µM (active)
EC50 [10]: 676 nM (active)
EC50 [11]: 7.46 µM (active)
EC50 [12]: 10.3 µM (active)
EC50 [13]: 2.92 µM (active)

CC(C#N)c1c(Cl)cnn(Cc2cccc3ccccc23)c1=O (stereo not drawn)
IC50 [14]: 3.1 µM (active)
IC50 [15]: 3.1 µM (active)

N#CC(c1c(Cl)cnn(Cc2cccc3ccccc23)c1=O)c1csc2ccccc12 (stereo not drawn)
IC50 [14]: > 20 µM (inactive)
IC50 [15]: > 20 µM (inactive)

COc1ccc(N(CC(=O)NCCc2cccc(C)c2)S(=O)(=O)c2c(C)noc2C)cc1
IC50 [16]: 653 nM (active)
IC50 (CHO-K1): > 66.2 µM (inactive)
IC50 [17]: 7.14 µM (active)
IC50 (Orexin receptor type 2 [18]): 2.27 µM (active)
IC50 (Orexin receptor type 2 [19]): > 88.8 µM (inactive)
IC50 [20]: > 49.8 µM (inactive)

CC(=O)Nc1cc(-c2ccc(CO)cc2)cn2c(-c3cccc(C(F)(F)F)c3)cnc12
EC50 (Melanocortin receptor 4): > 89.2 µM (inactive)

CCOC(=O)C1CCCN(C(=O)c2cn(C)c(=O)c3cc(OC)c(OC)cc23)C1 (stereo not drawn)
IC50 [21]: 14.1 µM (inactive)

C=CCNC(=O)CCC(=O)NNc1nc2ccccc2c2nc(-c3ccccc3)nn12
IC50 [16]: 1200 nM (active)
IC50 (CHO-K1): > 66.2 µM (inactive)
IC50 [17]: 6.87 µM (active)
IC50 (Orexin receptor type 2 [18]): > 50 µM (inactive)
IC50 (Orexin receptor type 2 [19]): > 88.8 µM (inactive)
IC50 [20]: > 49.7 µM (inactive)

Cc1ccc2nc(N(CCCN(C)C)C(=O)COc3ccc(Cl)cc3)sc2c1
EC50 (Insulin-degrading enzyme [22]): > 54.7 µM (inactive)
EC50 (HEK293 [23]): > 54.7 µM (inactive)
EC50 (Insulin-degrading enzyme [24]): > 54.7 µM (inactive)
IC50 (HEK293 [25]): 46.4 µM (inactive)
